In general, melting point refers to the temperature, or range, at which the solid turns liquid. In the case of `N#CCc1ccc(-c2cn3ccccc3n2)cc1`, the melting point was in the range of 175 to 177 °C. With `COc1ccccc1-c1ccc2c(c1)S(=O)(=O)NC(C1CCCCC1)N2` (configuration not stated), the melting point lay in the range of 219 to 222 °C. `CCOC(=O)c1ccc(NC(=O)c2ccc3c(c2)OCC(C)(C)CO3)cc1` came in with a melting point of 181 to 182 °C. In the case of `CC(C)(C)c1cc(C=C2CON(C(N)=O)C2=O)cc(C(C)(C)C)c1O`, the melting point fell in the range of 178 to 181 °C. `O=C(NC(=S)Nc1ccc(Cl)c(Cl)c1)c1c(Cl)cccc1Cl` returned a melting point of 240 °C. For `O=C(c1ccccc1)c1c[nH]nc1-c1cccc(Cl)c1`, the melting point was 161 to 164 °C.

In the case of `Cc1c(-c2ccc3c(c2)NC(=O)C(C)O3)nc2ccccn12` (configuration not stated), the melting point lay in the range of 216 to 217 °C. In turn, `COc1ccc(-c2nc3cnncc3[nH]2)c(N(C)C)c1` registered a melting point of 226 °C. With `CCCCCCCCCCCCC1=CC(=O)c2c(Cl)cccc2C1=O` the figure was 57.5 to 58.5 °C; with `CCc1cc(Oc2ccc(C(F)(F)F)cc2[N+](=O)[O-])nn1C(=O)NC`, 89 to 91 °C; with `O=C(CCC12CCC(=O)N1C(=O)CC2)OCc1ccccc1Cl`, 126 to 128 °C.

`Cc1ccc(C(=O)c2ccccc2C2=NCCN2C(C)C)cc1`: the melting point lay within 87 to 89 °C. In turn, `C=CCN1C(=O)c2cccc3c(OCCO)ccc(c23)C1=O` came in with a melting point of 144 to 145 °C. `NCC1=CC(c2ccccc2)Cc2c(O)cccc21` (configuration not stated) displayed a melting point of 102 to 104 °C.

The compound `CC1(C)CC(N)c2cc(OCc3ccccc3)ccc2O1` (configuration not stated) returned a melting point of 86 to 88 °C. With `O=C(Nc1cccc(C(F)(F)F)c1)Nc1ccc(OCc2ccccc2)cc1O` the figure was 184 to 185 °C; with `CCOC(=O)c1cn(-c2ccc(OC)c(OC)c2)cn1`, 125 to 126 °C. The compound `CCCCN(CC)CC(=O)OC1CC2(C)C(C(C)=O)CCC2C2CCC3CC(O)CCC3(C)C12` (configuration not stated) yielded a melting point of 111 to 112 °C.

Consider `Clc1cc2nc(NC3=NCCN3)[nH]c2cc1Cl`, for which the melting point is 265 to 272 °C.

Compound `COc1cc2ncnc(N3CCN(C(=O)Nc4cccnc4)CC3)c2cc1OC` showed a melting point of 208 to 209 °C. For `CCn1c2ccccc2c2cc3ccccc3c(C=O)c21`, the melting point lay in the range of 95.5 to 96.5 °C. Compound `CCOc1nn(-c2ccc(C(F)(F)F)cn2)cc1CCOc1cc(CCC(=O)O)n(-c2ccccc2)n1` showed a melting point of 155 to 156 °C. In turn, `Cc1cccc(I)c1C(=O)Nc1ccccc1[N+](=O)[O-]` yielded a melting point of 115 °C. `CC(C(N)=O)c1ccc2c(c1)CCc1ccccc1S2` (configuration not stated) had a melting point of 135 to 136 °C. The compound `Clc1ccc2onc(Cn3ccnc3)c2c1` had a melting point of 100 to 102 °C. In turn, `O=C(N[C@H](Cc1ccc(C(F)(F)F)cc1)[C@@H](O)c1ccoc1)c1ccc(F)c2ccccc12` (racemic) showed a melting point of 206 to 207 °C. `CC(=O)CC(=O)NCc1ccccc1` came in with a melting point of 84 to 86 °C. As to `O=C1OC(c2ccccc2)CN1Sc1ccc(Cl)cc1` (configuration not stated), the melting point fell in the range of 98 to 99 °C.

On to `CNc1nnc(-c2cccc(F)c2)c(=O)n1NC`, for which the melting point was 173 to 174 °C. `N#Cc1ccc(OCCCCCOc2ccc(-c3cc4ccc(C#N)cc4o3)cc2)cc1` showed a melting point of 165 to 167 °C. In the case of `COC(=O)/C=C/c1cc(Br)cs1`, the melting point is 63 to 67 °C.

The compound `CCOC(=O)c1c(Cl)c2cc(Cl)cnc2[nH]c1=O` came in with a melting point of 228 °C. In the case of `CCOC(=O)c1c2ccc(Cl)cc2c(-c2ccccc2)n1C1=CCC(=O)C=C1`, the melting point lay within 94 to 95 °C. Then `COc1cc(Nc2c(C#N)cnc3cc(OC)c(Br)cc23)c(Cl)cc1Cl`, with 256 to 257 °C. With `CCOC(=O)CNC(=O)C=C(c1ccc(Cl)cc1)c1ccc(Cl)cc1` the figure was 123 to 124 °C. Then `NC(=O)c1c(C(F)(F)F)ccc(Cl)c1F`, with 123 to 125 °C.

The compound `N#Cc1ccc(NC(=O)NCCCCl)cc1` showed a melting point of 95 to 97 °C.

Values taken from a melting point compilation (Tetko et al.; mined from patent text by program, amines drawn as free bases though some values may be those of a salt).
